As a reminder, the IC50 is the point on the concentration scale where inhibition reaches its midpoint. Read a high IC50 as lower potency.

Among the data in patent publication US8895571B2, “Isoindolinone and pyrrolopyridinone derivatives as Akt inhibitors” (Incyte Corporation, priority 2011, dated 2014) are IC50 values, retold here.

One experiment has as its target T1, Full length Akt1 (Homo sapiens, UniProt P31749).
T1 construct: Full length Akt1 (cat #P2999); purchased PerkinElmer P2999
As to the kind of experiment: In vitro Akt kinase enzymatic assay (HTRF), Akt1. The settings on record: 0.4 nM Akt1, substrate solution with 5 mM ATP, 25° C. 1 hr. The class given is biochemical. An outline of the steps: (§1)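 Full-length enzyme (0.4 nM Akt1 or 0.6 nM Akt2/Akt3 in the enzyme solution) was combined with a substrate solution of 0.1 μM ULight-Crosstide plus 5 mM ATP in pH 7.8 HEPES/MgCl2/DTT/Tween20 buffer and reacted 1 hr at 25° C. The EDTA stop contained Eu anti-phospho-Crosstide; IC50 was fitted from 11-point HTRF inhibition curves.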

The target in another experiment is T2, Full length Akt3 (Homo sapiens, UniProt Q9Y243).
T2 construct: Full length Akt1 (cat #P2999), Akt2 (cat #PV3184), Akt3 (cat #PV3185); purchased PerkinElmer PV3185
T2 sequence (Q9Y243 whole entry): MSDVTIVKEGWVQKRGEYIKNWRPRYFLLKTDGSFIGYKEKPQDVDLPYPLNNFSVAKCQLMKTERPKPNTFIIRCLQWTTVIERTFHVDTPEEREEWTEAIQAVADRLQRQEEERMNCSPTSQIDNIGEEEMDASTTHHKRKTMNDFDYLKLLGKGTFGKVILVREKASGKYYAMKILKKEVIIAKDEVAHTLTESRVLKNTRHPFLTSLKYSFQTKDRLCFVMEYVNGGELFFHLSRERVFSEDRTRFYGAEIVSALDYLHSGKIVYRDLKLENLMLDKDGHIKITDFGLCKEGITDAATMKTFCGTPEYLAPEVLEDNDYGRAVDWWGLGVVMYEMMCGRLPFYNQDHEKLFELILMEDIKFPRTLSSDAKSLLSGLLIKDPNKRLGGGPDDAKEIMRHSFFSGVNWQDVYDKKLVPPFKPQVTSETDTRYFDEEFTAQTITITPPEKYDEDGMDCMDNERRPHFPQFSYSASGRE
As to the kind of experiment: In vitro Akt kinase enzymatic assay (HTRF), Akt3. The class given is biochemical. To be noted: 0.6 nM Akt3, substrate solution with 5 mM ATP, 25° C. 1 hr. The gist of the method: as §1
In general terms: Time-resolved FRET reads energy transfer from a long-lived donor to a nearby acceptor.

The next experiment addresses T3, Full length PKA (Homo sapiens, UniProt P17612).
T3 construct: Full length PKA (cat #P2912); purchased Invitrogen P2912
As to the kind of experiment: PKA in vitro enzymatic assay (HTRF). The class given is biochemical. To be noted: 0.035 nM enzyme solution, substrate solution with 5 mM ATP, 25° C. 1 hr. An outline of the steps:
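Reaction buffer was 50 mM HEPES pH 7.8, 10 mM MgCl2, 5 mM DTT and 0.005% Tween20. Enzyme solution was 0.035 nM, and substrate solution was 0.1 μM fluorescein-CREBtide with 5 mM ATP. After 1 h at 25°C, EDTA plus Tb anti-pS133 antibody was added, TR-FRET was read, and IC50 was fitted from 11-point, 3-fold % inhibition curves.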

The test system of experiment [1] is LNCaP cells (human prostate tumor cell line). As to the kind of experiment: Akt LNCaP proliferation assay (MTS). The class given is cell-based. The settings on record: 2% fetal bovine serum, 48 hours, class symbols. An outline of the steps:
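Cells plated at 10,000/well in RPMI with 2% FBS overnight at 37° C., 5% CO2, then exposed to compound at 1000 nM to 0.5 nM (3-fold dilutions) for 48 hours. Viable cells measured by MTS colorimetric read-out after 2 hours; IC50 taken as concentration giving 50% inhibition of total proliferation.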

The target of another experiment is T4, Full length Akt2 (Homo sapiens, UniProt P31751).
T4 construct: Full length Akt1 (cat #P2999), Akt2 (cat #PV3184); purchased PerkinElmer PV3184
T4 sequence (P31751 whole entry): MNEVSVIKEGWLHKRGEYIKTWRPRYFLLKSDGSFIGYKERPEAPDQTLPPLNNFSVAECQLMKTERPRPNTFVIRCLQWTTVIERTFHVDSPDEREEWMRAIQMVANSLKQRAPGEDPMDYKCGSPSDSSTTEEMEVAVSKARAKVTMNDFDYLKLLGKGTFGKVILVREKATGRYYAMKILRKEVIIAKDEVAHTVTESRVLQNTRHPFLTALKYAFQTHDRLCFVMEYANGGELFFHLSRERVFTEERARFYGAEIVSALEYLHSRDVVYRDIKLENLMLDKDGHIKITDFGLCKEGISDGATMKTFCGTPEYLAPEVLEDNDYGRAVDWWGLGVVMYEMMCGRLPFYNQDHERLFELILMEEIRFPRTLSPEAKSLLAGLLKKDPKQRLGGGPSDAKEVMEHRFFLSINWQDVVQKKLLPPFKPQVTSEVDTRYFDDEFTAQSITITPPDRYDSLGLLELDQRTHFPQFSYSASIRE
As to the kind of experiment: In vitro Akt kinase enzymatic assay (HTRF), Akt2. Format: biochemical. To be noted: 0.6 nM Akt2, substrate solution with 5 mM ATP, 25° C. 1 hr. An outline of the steps:
as §1

T1 sequence (P31749 whole entry): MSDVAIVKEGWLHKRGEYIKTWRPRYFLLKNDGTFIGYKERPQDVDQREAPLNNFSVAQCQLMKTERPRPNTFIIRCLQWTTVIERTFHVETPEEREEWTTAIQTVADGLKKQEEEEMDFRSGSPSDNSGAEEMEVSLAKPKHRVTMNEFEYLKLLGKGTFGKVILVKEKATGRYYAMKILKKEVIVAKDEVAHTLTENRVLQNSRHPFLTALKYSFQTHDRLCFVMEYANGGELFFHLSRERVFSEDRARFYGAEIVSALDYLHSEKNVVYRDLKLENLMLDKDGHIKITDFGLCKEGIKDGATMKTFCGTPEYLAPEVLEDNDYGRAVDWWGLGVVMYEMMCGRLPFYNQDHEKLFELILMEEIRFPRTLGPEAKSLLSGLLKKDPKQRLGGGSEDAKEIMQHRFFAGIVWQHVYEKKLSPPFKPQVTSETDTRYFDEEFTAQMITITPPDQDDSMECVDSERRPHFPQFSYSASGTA

Regarding `COCc1cnn(C)c1-c1ccc2c(c1)CN([C@H](CN)CC1CCCCC1)C2=O` [Example 133, 2-[(1S)-2-amino-1-(cyclohexylmethyl)ethyl]-5-[4-(methoxymethyl)-1-methyl-1H-pyrazol-5-yl]isoindolin-1-one], the IC50 against Full length Akt1 was less than 500 nM; at Full length Akt3, 500 to 5000 nM; at Full length PKA it was greater than 5000 nM; in experiment [1], 500 to 5000 nM; against Full length Akt2, 500 to 5000 nM.

For `Cn1ncc(Cl)c1-c1ccc2c(c1)CN([C@H](CN)Cc1cccc(C(F)(F)F)c1)C2=O` (stereo in doubt) [Example 61, 2-{2-amino-1-[3-(trifluoromethyl)benzyl]ethyl}-5-(4-chloro-1-methyl-1H-pyrazol-5-yl)isoindolin-1-one], the IC50 at Full length Akt1 was less than 500 nM; on Full length Akt3 it was less than 500 nM; against Full length PKA, 500 to 5000 nM; in experiment [1], 500 to 5000 nM; against Full length Akt2 it was less than 500 nM.

For `Cn1nccc1-c1ccc2c(c1)CN([C@@H](CN)c1ccccc1)C2=O` [Example 116, 2-[(1R)-2-amino-1-phenylethyl]-5-(1-methyl-1H-pyrazol-5-yl)isoindolin-1-one], the IC50 on Full length Akt1 is less than 500 nM; at Full length Akt3, 500 to 5000 nM; against Full length PKA, 500 to 5000 nM; in experiment [1] it was less than 500 nM; on Full length Akt2, less than 500 nM.

With `Cn1ncc(Cl)c1-c1ccc2c(c1)CN([C@H](CN)Cc1cccs1)C2=O` [Example 67, 2-[(1S)-2-amino-1-(2-thienylmethyl)ethyl]-5-(4-chloro-1-methyl-1H-pyrazol-5-yl)isoindolin-1-one], the IC50 was less than 500 nM on Full length Akt1; less than 500 nM against Full length Akt3; 500 to 5000 nM on Full length PKA; less than 500 nM in experiment [1]; less than 500 nM against Full length Akt2.

In the case of `C#Cc1cccc(C[C@@H](CN)N2Cc3cc(-c4ccnn4C)ccc3C2=O)c1` [Example 88, 2-[(1S)-2-amino-1-(3-ethynylbenzyl)ethyl]-5-(1-methyl-1H-pyrazol-5-yl)isoindolin-1-one], the IC50 against Full length Akt1 was less than 500 nM; against Full length Akt3 it was less than 500 nM; against Full length PKA, 500 to 5000 nM; in experiment [1], less than 500 nM; at Full length Akt2, less than 500 nM.

Regarding `Cn1nccc1-c1ccc2c(c1)CN([C@H](CN)Cc1cccs1)C2=O` [Example 80, 2-[(1S)-2-amino-1-(2-thienylmethyl)ethyl]-5-(1-methyl-1H-pyrazol-5-yl)isoindolin-1-one], the IC50 is less than 500 nM on Full length Akt1; less than 500 nM against Full length Akt3; 500 to 5000 nM against Full length PKA; less than 500 nM in experiment [1]; less than 500 nM on Full length Akt2.

On to `Cn1nccc1-c1ccc2c(c1)CN([C@H](CN)CC1CCCCC1)C2=O` [Example 131, 2-[(1S)-2-amino-1-(cyclohexylmethyl)ethyl]-5-(1-methyl-1H-pyrazol-5-yl)isoindolin-1-one], for which the IC50 on Full length Akt1 is less than 500 nM; at Full length Akt3, less than 500 nM; against Full length PKA, 500 to 5000 nM; in experiment [1] it was less than 500 nM; on Full length Akt2, less than 500 nM.

For `CCSCc1cnn(C)c1-c1ccc2c(c1)CN([C@H](CN)Cc1cc(F)cc(F)c1)C2=O` [Example 50, 2-[(1S)-2-amino-1-(3,5-difluorobenzyl)ethyl]-5-[4-(ethylthio)methyl-1-methyl-1H-pyrazol-5-yl]isoindolin-1-one], the IC50 was less than 500 nM against Full length Akt1; less than 500 nM on Full length Akt3; greater than 5000 nM at Full length PKA; less than 500 nM in experiment [1]; less than 500 nM on Full length Akt2.

`Cn1ncc(COC2CCC2)c1-c1cc2c(cn1)C(=O)N([C@H](CN)Cc1cccc(F)c1)C2` [Example 97, 2-[(1S)-2-amino-1-(3-fluorobenzyl)ethyl]-6-[4-(cyclobutoxymethyl)-1-methyl-1H-pyrazol-5-yl]-1,2-dihydro-3H-pyrrolo[3,4-c]pyridin-3-one]: the IC50 on Full length Akt1 was less than 500 nM; against Full length Akt3 it was less than 500 nM; at Full length PKA, greater than 5000 nM; in experiment [1], less than 500 nM; on Full length Akt2 it was less than 500 nM.

Regarding `Cn1ncc(Cl)c1-c1ccc2c(c1)CN([C@H](CN)Cc1cccc(C#N)c1)C2=O` [Example 62, 3-{(2S)-3-amino-2-[5-(4-chloro-1-methyl-1H-pyrazol-5-yl)-1-oxo-1,3-dihydro-2H-isoindol-2-yl]propyl}benzonitrile], the IC50 at Full length Akt1 was less than 500 nM; on Full length Akt3, less than 500 nM; at Full length PKA it was greater than 5000 nM; in experiment [1], less than 500 nM; at Full length Akt2 it was less than 500 nM.

`Cn1ncc(Cl)c1-c1ccc2c(c1)CN([C@H](CN)Cc1ccccn1)C2=O` [Example 66, 2-[(1S)-2-amino-1-(pyridin-2-ylmethyl)ethyl]-5-(4-chloro-1-methyl-1H-pyrazol-5-yl)isoindolin-1-one]: the IC50 at Full length Akt1 was less than 500 nM; at Full length Akt3 it was less than 500 nM; against Full length PKA, 500 to 5000 nM; in experiment [1] it was less than 500 nM; against Full length Akt2 it was less than 500 nM.

As for `CCn1nccc1-c1ccc2c(c1)CN([C@H](CN)Cc1cc(F)cc(F)c1)C2=O` [Example 128, 2-[(1S)-2-amino-1-(3,5-difluorobenzyl)ethyl]-5-(1-ethyl-1H-pyrazol-5-yl)isoindolin-1-one], the IC50 is less than 500 nM at Full length Akt1; less than 500 nM on Full length Akt3; greater than 5000 nM at Full length PKA; less than 500 nM in experiment [1]; less than 500 nM on Full length Akt2.

Consider `COCc1cnn(C)c1-c1ccc2c(c1)CN([C@H](CN)Cc1cccc(F)c1)C2=O` [Example 4, 2-[(1S)-2-amino-1-(3-fluorobenzyl)ethyl]-5-(4-methoxymethyl-1-methyl-1H-pyrazol-5-yl)isoindolin-1-one], for which the IC50 was less than 500 nM against Full length Akt1; less than 500 nM on Full length Akt3; greater than 5000 nM at Full length PKA; less than 500 nM in experiment [1]; less than 500 nM on Full length Akt2.

Turning to `Cn1nccc1-c1ccc2c(c1)CN([C@H](CN)Cc1cccc(F)c1)C2=O` [Example 1, 2-[(1S)-2-Amino-1-(3-fluorobenzyl)ethyl]-5-(1-methyl-1H-pyrazol-5-yl)isoindolin-1-one], the IC50 at Full length Akt1 is less than 500 nM; at Full length Akt3, less than 500 nM; on Full length PKA, 500 to 5000 nM; in experiment [1], less than 500 nM; at Full length Akt2 it was less than 500 nM.

`Cn1ncc(Cl)c1-c1ccc2c(c1)CN([C@H](CN)Cc1cscn1)C2=O` [Example 69, 2-[(1S)-2-amino-1-(1,3-thiazol-4-ylmethyl)ethyl]-5-(4-chloro-1-methyl-1H-pyrazol-5-yl)isoindolin-1-one]: the IC50 is less than 500 nM on Full length Akt1; 500 to 5000 nM against Full length Akt3; 500 to 5000 nM against Full length PKA; greater than 5000 nM in experiment [1]; 500 to 5000 nM against Full length Akt2.

Turning to `Cn1nccc1-c1ccc2c(c1)CN([C@H](CN)Cc1cc(F)cc(F)c1)C2=O` [Example 40, 2-[(1S)-2-amino-1-(3,5-difluorobenzyl)ethyl]-5-(1-methyl-1H-pyrazol-5-yl)isoindolin-1-one], the IC50 is less than 500 nM against Full length Akt1; less than 500 nM against Full length Akt3; 500 to 5000 nM at Full length PKA; less than 500 nM in experiment [1]; less than 500 nM on Full length Akt2.

With `CCCOCc1cnn(C)c1-c1ccc2c(c1)CN([C@H](CN)Cc1cc(F)cc(F)c1)C2=O` [Example 46, 2-[(1S)-2-amino-1-(3,5-difluorobenzyl)ethyl]-5-[4-(1-propoxymethyl)-1-methyl-1H-pyrazol-5-]isoindolin-1-one], the IC50 against Full length Akt1 was less than 500 nM; at Full length Akt3, less than 500 nM; at Full length PKA, 500 to 5000 nM; in experiment [1], less than 500 nM; on Full length Akt2 it was less than 500 nM.

As to `Cn1ncc(C#CC(C)(C)O)c1-c1ccc2c(c1)CN([C@H](CN)Cc1cc(F)cc(F)c1)C2=O` [Example 54, 2-[(1S)-2-amino-1-(3,5-difluorobenzyl)ethyl]-5-[4-(3-hydroxy-3-methylbut-1-yn-1-yl)-1-methyl-1H-pyrazol-5-yl]isoindolin-1-one], the IC50 was less than 500 nM at Full length Akt1; less than 500 nM against Full length Akt3; greater than 5000 nM at Full length PKA; less than 500 nM in experiment [1]; less than 500 nM against Full length Akt2.

As for `Cn1ncc(COC2CCC2)c1-c1ccc2c(c1)CN([C@H](CN)Cc1cc(F)cc(F)c1)C2=O` [Example 47, 2-[(1S)-2-amino-1-(3,5-difluorobenzyl)ethyl]-5-[4-(cyclobutoxymethyl)-1-methyl-1H-pyrazol-5-yl]isoindolin-1-one], the IC50 was less than 500 nM on Full length Akt1; less than 500 nM at Full length Akt3; 500 to 5000 nM on Full length PKA; less than 500 nM in experiment [1]; less than 500 nM against Full length Akt2.
